# Experimental data reported in ChEMBL document CHEMBL1667853, “Design and synthesis of potent Gram-negative specific LpxC inhibitors” (Bioorg Med Chem Lett, 2011).
# Key:
# [1] = tested on: Escherichia coli; experiment: Antimicrobial activity against Escherichia coli HS294 by broth dilution assay; type: functional
# [2] = tested on: Escherichia coli; experiment: Antimicrobial activity against Escherichia coli ATCC 25922 by broth dilution assay; type: functional
# [3] = tested on: Escherichia coli; experiment: Antimicrobial activity against wild type Escherichia coli by broth dilution assay; type: functional
# [4] = tested on: Escherichia coli; experiment: Antimicrobial activity against multidrug-resistant Escherichia coli by broth dilution assay; type: functional
# [5] = tested on: Escherichia coli; experiment: Antimicrobial activity against ESBL producing Escherichia coli by broth dilution assay; type: functional
# [6] = tested on: Pseudomonas aeruginosa; experiment: Antimicrobial activity against wild type Pseudomonas aeruginosa by broth dilution assay; type: functional
# [7] = tested on: Pseudomonas aeruginosa; experiment: Antimicrobial activity against multidrug-resistant Pseudomonas aeruginosa by broth dilution assay; type: functional
# [8] = tested on: Klebsiella pneumoniae; experiment: Antimicrobial activity against wild type Klebsiella pneumoniae by broth dilution assay; type: functional
# [9] = tested on: Klebsiella pneumoniae; experiment: Antimicrobial activity against ESBL producing Klebsiella pneumoniae by broth dilution assay; type: functional
# [10] = tested on: Proteus vulgaris; experiment: Antimicrobial activity against wild type Proteus vulgaris by broth dilution assay; type: functional
# [11] = tested on: Serratia marcescens; experiment: Antimicrobial activity against wild type Serratia marcescens by broth dilution assay; type: functional
# [12] = tested on: Klebsiella aerogenes; experiment: Antimicrobial activity against wild type Enterobacter aerogenes by broth dilution assay; type: functional
# [13] = tested on: Enterobacter cloacae; experiment: Antimicrobial activity against ESBL producing Enterobacter cloacae by broth dilution assay; type: functional
# [14] = tested on: Acinetobacter calcoaceticus; experiment: Antimicrobial activity against wild type Acinetobacter calcoaceticus by broth dilution assay; type: functional
# [15] = tested on: Acinetobacter baumannii; experiment: Antimicrobial activity against wild type Acinetobacter baumannii by broth dilution assay; type: functional
# [16] = tested on: Stenotrophomonas maltophilia; experiment: Antimicrobial activity against wild type Stenotrophomonas maltophilia by broth dilution assay; type: functional
# [17] = target: T1, UDP-3-O-acyl-N-acetylglucosamine deacetylase (Escherichia coli K-12, UniProt P0A725); experiment: Inhibition of Escherichia coli LpxC
# T1 sequence (P0A725 whole entry): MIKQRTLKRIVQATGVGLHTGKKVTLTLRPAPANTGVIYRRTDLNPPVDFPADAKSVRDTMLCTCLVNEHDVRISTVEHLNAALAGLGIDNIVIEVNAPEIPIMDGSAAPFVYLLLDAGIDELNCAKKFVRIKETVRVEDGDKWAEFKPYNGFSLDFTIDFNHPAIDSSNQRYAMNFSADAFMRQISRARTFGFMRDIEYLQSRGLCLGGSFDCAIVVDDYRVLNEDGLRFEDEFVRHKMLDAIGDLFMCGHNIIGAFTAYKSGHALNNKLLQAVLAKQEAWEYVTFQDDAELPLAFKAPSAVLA
# [18] = Inhibition of Aquifex aeolicus LpxC
SMILES,MIC [1] [µg/mL],MIC [2] [µg/mL],MIC [3] [µg/mL],MIC [4] [µg/mL],MIC [5] [µg/mL],MIC [6] [µg/mL],MIC [7] [µg/mL],MIC [8] [µg/mL],MIC [9] [µg/mL],MIC [10] [µg/mL],MIC [11] [µg/mL],MIC [12] [µg/mL],MIC [13] [µg/mL],MIC [14] [µg/mL],MIC [15] [µg/mL],MIC [16] [µg/mL],IC50 [17] [nM],Kd [18] [nM]
C[C@@H](O)[C@@H](NC(=O)c1ccc(C#Cc2ccccc2)cc1)C(=O)NO,0.02,0.08,0.16,0.63,0.313,10,0.63,1.25,0.63,1.25,1.25,2.5,0.31,1.25,> 20,5,–,–
CC1(C)S[C@@H]2[C@H](NC(=O)[C@H](N)c3ccccc3)C(=O)N2[C@H]1C(=O)O [AMPICILLIN],–,–,4,> 8,> 32,4,> 256,> 32,> 32,–,–,–,> 32,–,–,> 32,–,–
C[C@@H](N)[C@@H](NC(=O)N1CCN(c2ccc(C#Cc3ccccc3)cc2)CC1)C(=O)NO,0.4,1.56,1.56,3.13,1.56,12.5,3.13,25,12.5,6.25,12.5,25,3.13,25,25,> 50,0.6,–
CCCCCCCOc1cccc(C(=O)O)c1,–,–,–,–,–,–,–,–,–,–,–,–,–,–,–,–,–,2000
C[C@@H](O)[C@@H](NC(=O)N1CCC(c2ccc(-c3ccccc3)cc2)CC1)C(=O)NO,0.8,6.25,1.56,3.13,3.13,3.13,> 12.5,> 100,12.5,3.13,6.25,> 100,3.13,> 100,> 100,> 100,13.8,–
CC(C)(O)[C@@H](NC(=O)N1CCN(c2ccc(C#Cc3ccccc3)cc2)CC1)C(=O)NO,0.1,0.8,0.8,1.56,1.56,> 50,6.25,12.5,6.25,3.13,6.25,12.5,6.25,25,> 50,25,0.3,–
